# According to US9849143B2, “Broad spectrum antiviral and methods of use” (The Burlington HC Research Group, Inc., priority 2006, dated 2017):
# Several values for one entry are separate records, joined by “and”; a condition that tells them apart may be missing. Identical values can stand only once. Like-named read-outs stand apart in the source and are kept apart here.
# What was measured:
# HIV = assay type: cell-based; details: for duration of action: cell culture, cysteamine re-added every 12 hours, WR-1065 added once in a 72 hour period
# [1] = mouse, in vivo; cited from earlier work
# [2] = mouse, in vivo, cited from earlier work
# [3] = in vivo; cited from earlier work
# Ad7-p (strain Gomen) = assay: Infectious virus yield in A549 cell monolayers, Ad7-p; assay type: cell-based, adenovirus species B
# [4] = system: Ad5-p (strain Adenoid 75); assay: Infectious virus yield in A549 cell monolayers, Ad5-p; assay type: cell-based, adenovirus species C
# Ad4-p (strain RI-67) = assay: Infectious virus yield in A549 cell monolayers, Ad4-p; assay type: cell-based, adenovirus species E
# A/HKx31 (H3N2) = assay type: cell-based, influenza A
# Adenovirus 5p = assay: Plaque reduction assay in A549 cells; assay type: cell-based
# PHA blasts = assay: Viability of PHA blasts exposed to WR-1065; assay type: cell-based, Human; details: uninfected PHA blasts
# [5] = rhesus macaques, cited from earlier work
# [6] = Experiment #1, 10 μM AZT, 72 hours
# [7] = Experiment #1, 1000 μM WR1065, 72 hours
structure (smiles),measurement,setting,value
"Cc1cn([C@H]2C[C@H](N=[N+]=[N-])[C@@H](CO)O2)c(=O)[nH]c1=O [AZT, Zidovudine]",Estimated percent viral inhibition,HIV; [6],~100%
same,HIV P24,HIV; [6],0.13 pg/mL
same,Estimated percent viral inhibition,"HIV; Experiment #3, 10 μM AZT",~100%
same,HIV P24,"HIV; Experiment #3, 10 μM AZT",2.9 pg/mL
"NCCCNCCSP(=O)(O)O [Amifostine, S-2-(3-aminopropyl)aminoethyl phosphorothioic acid]",100% effective radioprotective dose,[1],about one half
same,maximally tolerated dose (MTD),[2]; ip,432 mg/kg BW
same,maximally tolerated dose (MTD),[2]; po,720 mg/kg BW
same,effects of single doses,[3],no untoward effects
"NCCCNCCS [WR-1065, 2-(3-aminopropylamino)ethanethiol]",Mean infectious virus yields 96-h post infection & WR 1065 treatment,"Ad7-p (strain Gomen); Trial 1, <10 μM WR 1065",1.85 PFUs × 10^6
same,Mean infectious virus yields 96-h post infection & WR 1065 treatment,"Ad7-p (strain Gomen); Trial 1, <33 μM WR 1065",0.85 PFUs × 10^6
same,Mean infectious virus yields 96-h post infection & WR 1065 treatment,"Ad7-p (strain Gomen); Trial 1, <100 μM WR 1065",1.15 PFUs × 10^6
same,Mean infectious virus yields 96-h post infection & WR 1065 treatment,"Ad7-p (strain Gomen); Trial 2, <100 μM WR 1065",30.5 PFUs × 10^6
same,Mean infectious virus yields 96-h post infection & WR 1065 treatment,"[4]; Trial 1, <10 μM WR 1065",9.0 PFUs × 10^6
same,Mean infectious virus yields 96-h post infection & WR 1065 treatment,"[4]; Trial 1, <33 μM WR 1065",5.65 PFUs × 10^6
same,Mean infectious virus yields 96-h post infection & WR 1065 treatment,"[4]; Trial 1, <100 μM WR 1065",2.25 PFUs × 10^6
same,Mean infectious virus yields 96-h post infection & WR 1065 treatment,"[4]; Trial 2, <33 μM WR 1065",600 PFUs × 10^6
same,Mean infectious virus yields 96-h post infection & WR 1065 treatment,"[4]; Trial 2, <100 μM WR 1065",500 PFUs × 10^6
same,Mean infectious virus yields 96-h post infection & WR 1065 treatment,"[4]; Trial 3, <33 μM WR 1065","1,660 PFUs × 10^6"
same,Mean infectious virus yields 96-h post infection & WR 1065 treatment,"Ad4-p (strain RI-67); Trial 1, <33 μM WR 1065","1,420 PFUs × 10^6"
same,Mean infectious virus yields 96-h post infection & WR 1065 treatment,"Ad4-p (strain RI-67); Trial 1, <100 μM WR 1065",980 PFUs × 10^6
same,Mean infectious virus yields 96-h post infection & WR 1065 treatment,"Ad4-p (strain RI-67); Trial 2, <100 μM WR 1065",9.5 PFUs × 10^6
same,Mean plaque number,A/HKx31 (H3N2),59.3 and 57 and 48
same,plaque number (plaque reduction assay),Adenovirus 5p; 16.5 μM WR1065,63
same,plaque number (plaque reduction assay),Adenovirus 5p; 50 μM WR1065,41
same,reduction of plaque number,Adenovirus 5p; 50 μM WR1065,36%
same,Estimated percent viral inhibition,HIV; [7],~100%
same,HIV P24,HIV; [7],0.13 pg/mL
same,suppression of HIV replication,HIV; WR-1065 at a concentration of less than 100 μM,> 99.9%
same,duration of action,HIV,long duration of action
same,in vitro anti-HIV activity relative to cysteamine,HIV; compared by effective concentration,over 2 fold
same,% Viable Cells (compared to control),"PHA blasts; 1 μM WR-1065, 72 hours",83%
same,% Viable Cells (compared to control),"PHA blasts; 5 μM WR-1065, 72 hours",82%
same,% Viable Cells (compared to control),"PHA blasts; 10 μM WR-1065, 72 hours",90%
same,% Viable Cells (compared to control),"PHA blasts; 50 μM WR-1065, 72 hours",89%
same,% Viable Cells (compared to control),"PHA blasts; 100 μM WR-1065, 72 hours",63%
same,% Viable Cells (compared to control),"PHA blasts; 500 μM WR-1065, 72 hours",73%
same,% Viable Cells (compared to control),"PHA blasts; 1000 μM WR-1065, 72 hours",30%
same,Concentration (plasma),[5]; 1 h after duodenal administration of 150 mg/kg BW of parent drug,6210 ng/mL
same,Concentration (plasma),[5]; 2 h after duodenal administration of 150 mg/kg BW of parent drug,4140 ng/mL
same,Concentration (plasma),[5]; 6 h after duodenal administration of 150 mg/kg BW of parent drug,2070 ng/mL
"NCCS [cysteamine, Cysteamine]",suppression of HIV replication,"HIV; 200 μM cysteamine, in vitro assay system as described above",~100%
same,duration of action,HIV,very short
